Measured values: ChEMBL document CHEMBL1795223, “A reverse method for diversity introduction of benzimidazole to synthesize H(+)/K(+)-ATP enzyme inhibitors” (Bioorg Med Chem Lett, 2011)

Target: not listed separately
Test: Inhibition of H+/K+ATPase in pig gastric microsome assessed as liberation of inorganic phosphate using ATP
Format: microsomes, Sus scrofa, Stomach
Details: not given

IC50 [µM] | SMILES
16 | CCCN(CCC)c1cc2nc([S+]([O-])Cc3ncc(C)c(OC)c3C)[nH]c2cc1NC(C)=O (stereo unspecified)
18 | COc1ccc2[nH]c([S+]([O-])Cc3ncc(C)c(OC)c3C)nc2c1 (stereo unspecified) [OMEPRAZOLE]

SMILES | IC50 [µM]
COCCCOc1ccnc(C[S+]([O-])c2nc3ccccc3[nH]2)c1C (stereo unspecified) [RABEPRAZOLE SODIUM] | 1.5

Organism: Sus scrofa
Test: Inhibition of H+/K+ATPase in pig gastric microsome assessed as liberation of inorganic phosphate using ATP at 10 uM relative to control
Format: microsomes
Details: Stomach

SMILES | inhibition [%]
COc1c(C)cnc(C[S+]([O-])c2nc3cc(Oc4ccc5c(c4)OCO5)c(NC(C)=O)cc3[nH]2)c1C (stereo unspecified) | 35
COc1ccnc(C[S+]([O-])c2nc3cc(Oc4ccccc4)c(NC(C)=O)cc3[nH]2)c1OC (stereo unspecified) | 6
COCCCOc1ccnc(C[S+]([O-])c2nc3ccccc3[nH]2)c1C (stereo unspecified) [RABEPRAZOLE SODIUM] | 90
COc1ccnc(C[S+]([O-])c2nc3cc(Oc4ccccc4)c(NC(=O)c4ccco4)cc3[nH]2)c1OC (stereo unspecified) | 9
CCCN(CCC)c1cc2nc([S+]([O-])Cc3ncc(C)c(OC)c3C)[nH]c2cc1NC(=O)C(F)(F)F (stereo unspecified) | 3
CCCN(CCC)c1cc2nc([S+]([O-])Cc3ncc(C)c(OC)c3C)[nH]c2cc1NC(C)=O (stereo unspecified) | 62
COc1c(C)cnc(C[S+]([O-])c2nc3cc(N4CCCCC4)c(NC(=O)C(F)(F)F)cc3[nH]2)c1C (stereo unspecified) | 41
COc1ccc2[nH]c([S+]([O-])Cc3ncc(C)c(OC)c3C)nc2c1 (stereo unspecified) [OMEPRAZOLE] | 39
COc1cc2nc([S+]([O-])Cc3nccc(OC)c3OC)[nH]c2cc1NC(=O)c1ccco1 (stereo unspecified) | 13
COc1c(C)cnc(C[S+]([O-])c2nc3cc(N4CCCCC4)c(NC(=O)COCc4ccccc4)cc3[nH]2)c1C (stereo unspecified) | 58
COc1cc2nc([S+]([O-])Cc3ncc(C)c(OC)c3C)[nH]c2cc1NC(C)=O (stereo unspecified) | 4
COc1c(C)cnc(C[S+]([O-])c2nc3cc(Oc4ccc5c(c4)OCO5)c(NC(=O)C4CC4)cc3[nH]2)c1C (stereo unspecified) | 10
CCCN(CCC)c1cc2nc([S+]([O-])Cc3ncc(C)c(OC)c3C)[nH]c2cc1NC(=O)c1ccco1 (stereo unspecified) | 39
COc1ccnc(C[S+]([O-])c2nc3cc(Oc4ccc5c(c4)OCO5)c(NC(C)=O)cc3[nH]2)c1OC (stereo unspecified) | 1
CCCN(CCC)c1cc2nc([S+]([O-])Cc3nccc(OC)c3OC)[nH]c2cc1NC(=O)C(F)(F)F (stereo unspecified) | 24
COc1c(C)cnc(C[S+]([O-])c2nc3cc(Oc4ccccc4)c(NC(C)=O)cc3[nH]2)c1C (stereo unspecified) | 37
CCCN(CCC)c1cc2nc([S+]([O-])Cc3nccc(OC)c3OC)[nH]c2cc1NC(C)=O (stereo unspecified) | 28
COc1c(C)cnc(C[S+]([O-])c2nc3cc(Oc4ccccc4)c(NC(=O)c4ccco4)cc3[nH]2)c1C (stereo unspecified) | 48
COc1c(C)cnc(C[S+]([O-])c2nc3cc(Oc4ccccc4)c(NC(=O)C4CC4)cc3[nH]2)c1C (stereo unspecified) | 18
CCCN(CCC)c1cc2nc([S+]([O-])Cc3nccc(OC)c3OC)[nH]c2cc1NC(=O)c1ccco1 (stereo unspecified) | 0
COc1cc2nc([S+]([O-])Cc3ncc(C)c(OC)c3C)[nH]c2cc1NC(=O)c1ccco1 (stereo unspecified) | 13
CCCN(CCC)c1cc2nc([S+]([O-])Cc3ncc(C)c(OC)c3C)[nH]c2cc1NC(=O)C1CC1 (stereo unspecified) | 33

Continued, values first:

inhibition [%] | SMILES
0 | COc1ccnc(C[S+]([O-])c2nc3cc(Oc4ccc5c(c4)OCO5)c(NC(=O)C4CC4)cc3[nH]2)c1OC (stereo unspecified)
32 | COc1ccnc(C[S+]([O-])c2nc3cc(N4CCCCC4)c(NC(=O)COCc4ccccc4)cc3[nH]2)c1OC (stereo unspecified)
16 | COc1cc2nc([S+]([O-])Cc3ncc(C)c(OC)c3C)[nH]c2cc1NC(=O)C1CC1 (stereo unspecified)
4 | CCOC(=O)N1CCN(c2cc3nc([S+]([O-])Cc4nccc(OC)c4OC)[nH]c3cc2NC(=O)C2CC2)CC1 (stereo unspecified)
8 | COc1ccnc(C[S+]([O-])c2nc3cc(N4CCCCC4)c(NC(C)=O)cc3[nH]2)c1OC (stereo unspecified)
2 | COc1ccnc(C[S+]([O-])c2nc3cc(Oc4ccccc4)c(NC(=O)C4CC4)cc3[nH]2)c1OC (stereo unspecified)
10 | COc1c(C)cnc(C[S+]([O-])c2nc3cc(N4CCCCC4)c(NC(C)=O)cc3[nH]2)c1C (stereo unspecified)
32 | COc1ccnc(C[S+]([O-])c2nc3cc(N4CCCCC4)c(NC(=O)C4CC4)cc3[nH]2)c1OC (stereo unspecified)
17 | CCOC(=O)N1CCN(c2cc3nc([S+]([O-])Cc4nccc(OC)c4OC)[nH]c3cc2NC(C)=O)CC1 (stereo unspecified)
38 | COc1ccnc(C[S+]([O-])c2nc3cc(N4CCCCC4)c(NC(=O)C(F)(F)F)cc3[nH]2)c1OC (stereo unspecified)
34 | COc1c(C)cnc(C[S+]([O-])c2nc3cc(N4CCCCC4)c(NC(=O)C4CC4)cc3[nH]2)c1C (stereo unspecified)
21 | CCOC(=O)N1CCN(c2cc3nc([S+]([O-])Cc4ncc(C)c(OC)c4C)[nH]c3cc2NC(=O)C2CC2)CC1 (stereo unspecified)
11 | CCCN(CCC)c1cc2nc([S+]([O-])Cc3nccc(OC)c3OC)[nH]c2cc1NC(=O)C1CC1 (stereo unspecified)
16 | COc1cc2nc([S+]([O-])Cc3nccc(OC)c3OC)[nH]c2cc1NC(=O)C1CC1 (stereo unspecified)
15 | CCOC(=O)N1CCN(c2cc3nc([S+]([O-])Cc4ncc(C)c(OC)c4C)[nH]c3cc2NC(C)=O)CC1 (stereo unspecified)
4 | COc1cc2nc([S+]([O-])Cc3nccc(OC)c3OC)[nH]c2cc1NC(C)=O (stereo unspecified)
